The numbers were not newly measured in US8293779B2, “Mazindol combination in the treatment of attention deficit/hyperactivity” (Assistance Publique-Hopitaux de Paris, priority 2006, dated 2012), which cites them from elsewhere.

Read-outs that look alike come from different tables or passages of the source.

The conditions of series [1]: unlike amphetamine molecules.
The conditions of series [2]: animal toxicology studies.
Where [3] appears, read: after single or repeated oral administration.

Turning to `OC1(c2ccc(Cl)cc2)c2ccccc2C2=NCCN21` (centres unmarked) [mazindol, 5-(4-chlorophenyl)-2,5-dihydro-3H-imadazo[2,1-a]isoindol-5-ol], the “cardiovascular modifications or stereotypes” value in series [1] is listed as “does not cause cardiovascular modifications or stereotypes”. For the same molecule, in series [2], the carcinogenic effect entry is recorded as “no carcinogenic effect”, the mutagenic effect result is recorded as “no mutagenic effect”, the toxic potential entry is given as “very low” and the “toxicology effect in reproduction” value is given as “no toxicology effect in reproduction”. Further, the “part of the dose still plasmatically effective” value (24 hours after taking) was 75%. In addition, under setting [3], the plasmatic half-life time is 33 to 55 h and the tmax was 2 to 4 h. For the same molecule, the pharmacokinetics dose dependence result (doses of between 1 mg/day and 4 mg/day) is “linear (independent of the dose)”. Besides, the plasmatic half-life time entry (general statement) is listed as “greater than one day”. Besides, the “excretion in faeces (fraction)” value (in vivo) is “¼”. For the setting “oral, with food”, the “delay of absorption by taking food concomitantly” value is listed as “approximately 1 hour” and the “effect of food on total quantity absorbed” value is on record as “does not modify the total quantity absorbed”. For the same molecule, the “excretion in urine (fraction)” value (principal metabolism urinary) is recorded as “¾”.
